# Test results taken from US8450308B2 (Vitae Pharmaceuticals, Inc., priority 2008, dated 2013).
# Assay: BACE cell assay: soluble Amyloid Beta 1-40 (Aβ 1-40) in culture media of H4-APPsw cells
# Format: cell-based
# Conditions: not given
# Protocol: H4 neuroglioma cell line that stably expresses Amyloid Precursor Protein (APP) containing the KM-NL Swedish mutation (H4-APPsw) was generated. For the assay, cells are treated overnight in the presence of inhibitor and the culture media are subjected to ELISA analysis of soluble Amyloid Beta 1-40 (Aβ 1-40).
# H4 neuroglioma cell line was cultured in DMEM with 10% FBS and 1% penicillin/streptomycin (Culture Medium) at 37° C., 5% CO2. […] 24 hrs after transfection, the cells were replaced into three new plates (150 mm) in fresh Culture Medium with 250 ug/ml Zeocin. […] The levels of APPsw expression were analyzed by immunoblotting and the production of Aβ 1-40 was detected by ELISA of culture supernatants. The selected clones are maintained in Culture Medium with 250 μg/ml Zeocin and routinely split in 3-4 days to maintain 20-80% confluence.
# Split cells. Split H4-APPsw cells in Culture Medium and culture overnight such that cells will be ˜80% confluent next morning.
# Create Compound Dilution Plate. After determining the desired final concentration of compound to be tested, create a 500× dilution plate. Add DMSO, but not inhibitor, to each well of Column 1. […] Add compounds of interest at 500× desired final concentration to wells A3-A10. Add DMSO, but not inhibitor, to each well of Columns 11 and 12. Dilute contents of Row A 1:3 in Row B. then continue through Rows C—H.
# Create Media Plate. To create a 2× solution of compound in media, add 996 μL Culture Medium to each well of a 96-well 2 ml deep well plate (Media Plate) in biosafety hood. Add 4 μL 5 mM control compound to Media Plate wells A1-D1 for determination of full inhibition.
# Add media to Cell Plate. With a multichannel pipettor, mix each well of Media Plate several times to insure homogeneity. Add 100 μL of mixture to Black polymer bottom P-D-L plates. Next, place Medium Plate and Cell Plate in the incubator.
# Add cells to Cell Plate. Trypsinize and count H4-APPsw cells. Dilute cells 6×10^5 cells/ml in Culture Medium and remove Cell Plate from incubator. Vortex cells to homogeneity, then using a multichannel repeating pipettor, add 100 μL cell suspension to Cell Plate, adding cells from Row H to Row A. Place Cell Plate in incubator.
# Change media in Cell Plate. After 5 h, check Cell Plate by microscope to insure cells are attached. In culture hood, remove media from Cell Plate using multichannel repeating pipettor. Add 100 μl Culture Medium to each well. Remove Media Plate from incubator and mix with pipettor as previous. Add 100 μl from each well of Media Plate to corresponding well in Cell Plate. Place Cell Plate in incubator overnight.
# Perform ELISA to determine levels of secreted Aβ 1-40. After 16 h incubation, spin Cell Plate for 8 min at 1200 rpm. The primary reading of Aβ 1-40 levels is done using PerkinElmer AlphaLISA technology. Follow the manufacturer's protocol for performing AlphaLISA in a white ½ area Optiwell plate using Row 12 for peptide standard (1:2 dilutions, starting at 15 ng/ml). Data are acquired using PerkinElmer Fusion-Alpha FP-HT, Alpha protocol (Count Time 0.6 s, Count Time Ratio 30%:70%).
# Export data from Fusion using Columnar Report format into a separate file for each plate. Upload data into Activity Base using RIA-DOSE-RESPONSE protocol (Version 1). Data from at least eight doses were fitted to a four parameter logistical model using XLfit software to determine potency.
row,SMILES,IC50
1,CN1OC2(CC3(CCCc4ccccc4C3)Oc3ccc(-c4cccc(C#N)c4)cc32)N=C1N (stereo not shown) [Compound 217],100 to 500 nM

# Same assay, conditions: in vitro cell activity, H4-APPsw cells, secreted Aβ 1-40, overnight treatment; read-out: IC50
row,SMILES,IC50
1,CN1O[C@@]2(C[C@]3(CCCc4ccccc4C3)Oc3ccc(-c4cccc(C#N)c4)cc32)N=C1N [Compound 205],100 to 500 nM
2,CN1C(=O)C2(CC(C34CCC(CC3)OC4)Oc3ccc(-c4cccc(C#N)c4)cc32)N=C1N (stereo not shown) [Compound 206],100 to 500 nM
3,CN1O[C@@]2(C[C@@H]([C@H]3CCOC(C)(C)C3)Oc3ccc(-c4cccc(C#N)c4)cc32)N=C1N [Compound 207],100 to 500 nM
4,CN1OC2(CC(C3CCCc4ccccc43)Oc3ccc(-c4cc(Cl)cc(C#N)c4)cc32)N=C1N (stereo not shown) [Compound 208],1000 to 5000 nM
5,CN1O[C@@]2(C[C@@]3(CCCc4ccccc4C3)Oc3ccc(-c4cccc(C#N)c4)cc32)N=C1N [Compound 209],1000 to 5000 nM
6,CN1O[C@]2(C[C@H]([C@@H]3CCOC(C)(C)C3)Oc3ccc(-c4cccc(C#N)c4)cc32)N=C1N [Compound 211],100 to 500 nM
7,CN1C(=O)C2(CC(C3CCOC(C)(C)C3)Oc3ccc(-c4cccc(C#N)c4F)cc32)N=C1N (stereo not shown) [Compound 212],1 to 100 nM
8,CN1C(=O)C2(CC(C3CCOC(C)(C)C3)Oc3ccc(-c4cc(C#N)cc(C(F)(F)F)c4)cc32)N=C1N (stereo not shown) [Compound 213],1 to 100 nM
9,COc1cc(Cl)cc(-c2ccc3c(c2)[C@]2(C[C@]4(CCCOC4)O3)N=C(N)N(C)C2=O)c1 [Compound 214],1 to 100 nM
10,CN1C(=O)[C@@]2(C[C@]3(CCCOC3)Oc3ccc(-c4cc(F)cc(Cl)c4)cc32)N=C1N [Compound 215],100 to 500 nM
11,CN1C(=O)[C@@]2(C[C@]3(CCCOC3)Oc3ccc(-c4cc(C#N)cc(C(F)(F)F)c4)cc32)N=C1N [Compound 216],1 to 100 nM
12,CN1C(=O)C2(CC(C3CCOC(C)(C)C3)Oc3ccc(-c4cc(C#N)ccc4F)cc32)N=C1N (stereo not shown) [Compound 218],1 to 100 nM
13,CN1O[C@]2(C[C@]3(CCCc4ccccc4C3)Oc3ccc(-c4cccc(C#N)c4)cc32)N=C1N [Compound 220],100 to 500 nM
14,CN1O[C@@]2(C[C@H](C3CCCc4ccccc43)Oc3ccc(-c4ccc(F)c(C#N)c4)cc32)N=C1N (stereo partly shown) [Compound 221],1000 to 5000 nM
15,Cc1ccc(C#N)cc1-c1ccc2c(c1)[C@]1(C[C@H](C3CCOC(C)(C)C3)O2)N=C(N)N(C)C1=O (stereo partly shown) [Compound 222],1 to 100 nM
16,COc1cc(C#N)cc(-c2ccc3c(c2)C2(CC4(CCCOC4)O3)N=C(N)N(C)C2=O)c1 (stereo not shown) [Compound 223],1 to 100 nM
17,CN1C(=O)[C@@]2(C[C@]3(CCCOC3)Oc3ccc(-c4cccc(Cl)c4)cc32)N=C1N [Compound 224],100 to 500 nM
18,COc1cccc2c1CCCC1(C2)CC2(N=C(N)N(C)O2)c2cc(-c3cccc(C#N)c3)ccc2O1 (stereo not shown) [Compound 225],500 to 1000 nM
19,CN1OC2(CC(C3CCc4ccccc43)Oc3ccc(-c4cccc(C#N)c4)cc32)N=C1N (stereo not shown) [Compound 226],1000 to 5000 nM
20,CN1OC2(CC3(CCCc4ccccc4C3)Oc3ccc(-c4cc(F)cc(Cl)c4)cc32)N=C1N (stereo not shown) [Compound 227],1000 to 5000 nM
21,CN1O[C@]2(C[C@@]3(CCCc4ccccc4C3)Oc3ccc(-c4cccc(C#N)c4)cc32)N=C1N [Compound 228],500 to 1000 nM
22,CN1C(=O)C2(CC(C3CCOC(C)(C)C3)Oc3ccc(-c4cc(F)cc(F)c4F)cc32)N=C1N (stereo not shown) [Compound 229],100 to 500 nM
23,CN1C(=O)C2(C[C@H]([C@H]3CCOC(C)(C)C3)Oc3ccc(-c4cccc(C#N)c4)cc32)N=C1N (stereo partly shown) [Compound 230],1 to 100 nM
24,CN1C(=O)C2(C[C@H](C3CCOC(C)(C)C3)Oc3ccc(-c4cc(F)cc(F)c4)cc32)N=C1N (stereo partly shown) [Compound 231],100 to 500 nM
25,CC1CC[C@@]2(CO1)C[C@]1(N=C(N)N(C)O1)c1cc(-c3cc(F)cc(Cl)c3)ccc1O2 (stereo partly shown) [Compound 232],500 to 1000 nM
26,CN1C(=O)[C@@]2(C[C@]3(CCCOC3)Oc3ccc(-c4ccc(F)c(Cl)c4)cc32)N=C1N [Compound 233],100 to 500 nM
27,COc1cc(Cl)cc(-c2ccc3c(c2)C2(CC4(CCCc5ccccc5C4)O3)N=C(N)N(C)O2)c1 (stereo not shown) [Compound 234],1000 to 5000 nM

row,SMILES,IC50
1,CN1O[C@@]2(C[C@@H](C3CCCc4ccccc43)Oc3ccc(-c4ccc(F)c(Cl)c4)cc32)N=C1N (stereo partly shown) [Compound 235],1000 to 5000 nM
2,CC1CC[C@@]2(CO1)C[C@]1(N=C(N)N(C)O1)c1cc(-c3cccc(Cl)c3)ccc1O2 (stereo partly shown) [Compound 236],500 to 1000 nM
3,CN1O[C@@]2(C[C@H]([C@@H]3CCOC(C)(C)C3)Oc3ccc(-c4cccc(C#N)c4)cc32)N=C1N [Compound 237],500 to 1000 nM
4,CN1OC2(CC3(CCCc4ccccc4C3)Oc3ccc(C#CC4CC4)cc32)N=C1N (stereo not shown) [Compound 238],1000 to 5000 nM
5,CN1OC2(CC(C3CCCc4ccccc43)Oc3ccc(-c4cccc(Cl)c4)cc32)N=C1N (stereo not shown) [Compound 239],1000 to 5000 nM
6,CN1OC2(CC(C3CCCc4ccccc43)Oc3ccc(-c4cc(F)cc(Cl)c4)cc32)N=C1N (stereo not shown) [Compound 240],5000 to 10000 nM
7,CN1C(=O)C2(C[C@H](C3CCOC(C)(C)C3)Oc3ccc(-c4cccc(F)c4)cc32)N=C1N (stereo partly shown) [Compound 241],100 to 500 nM
8,CN1OC2(CC3(CCCc4ccccc4C3)Oc3ccc(-c4cc(F)cc(C(F)(F)F)c4)cc32)N=C1N (stereo not shown) [Compound 242],1000 to 5000 nM
9,CN1C(=O)[C@@]2(C[C@]3(CCCOC3)Oc3ccc(-c4cccc(C(F)(F)F)c4)cc32)N=C1N [Compound 243],100 to 500 nM
10,Cc1cccc(-c2ccc3c(c2)C2(CC(C4CCOC(C)(C)C4)O3)N=C(N)N(C)C2=O)c1F (stereo not shown) [Compound 244],100 to 500 nM
11,CN1C(=O)[C@@]2(C[C@@H](C3CCCc4ccccc43)Oc3ccc(-c4cccc(C#N)c4)cc32)N=C1N (stereo partly shown) [Compound 245],500 to 1000 nM
12,CN1O[C@@]2(C[C@H](C3CCCc4ccccc43)Oc3ccc(-c4cccc(C#N)c4)cc32)N=C1N (stereo partly shown) [Compound 247],500 to 1000 nM
13,CN1OC2(CC(C3CCOC(C)(C)C3)Oc3ccc(-c4cc(C#N)cc(C#N)c4)cc32)N=C1N (stereo not shown) [Compound 248],100 to 500 nM
14,CC1CC[C@@]2(CO1)C[C@]1(N=C(N)N(C)O1)c1cc(-c3ccc(F)c(Cl)c3)ccc1O2 (stereo partly shown) [Compound 249],1000 to 5000 nM
15,CN1C(=O)[C@@]2(C[C@]3(CCCOC3)Oc3ccc(-c4cc(F)cc(C#N)c4)cc32)N=C1N [Compound 250],100 to 500 nM
16,CN1OC2(C[C@@]3(CCCc4ccccc4C3)Oc3ccc(-c4cccc(C#N)c4)cc32)N=C1N (stereo partly shown) [Compound 251],100 to 500 nM
17,CN1O[C@@]2(C[C@H](C3CCCc4ccccc43)Oc3ccc(-c4ccc(F)c(Cl)c4)cc32)N=C1N (stereo partly shown) [Compound 252],1000 to 5000 nM
18,Cc1cc(Br)cc(-c2ccc3c(c2)C2(CC4(CCCOC4)O3)N=C(N)N(C)C2=O)c1F (stereo not shown) [Compound 253],500 to 1000 nM
19,CN1C(=O)C2(C[C@H](C3CCOC(C)(C)C3)Oc3ccc(-c4ccc(F)c(F)c4)cc32)N=C1N (stereo partly shown) [Compound 254],100 to 500 nM
20,CN1C(=O)[C@@]2(C[C@]3(CCCOC3)Oc3ccc(-c4cc(C#N)cc(C#N)c4)cc32)N=C1N [Compound 255],100 to 500 nM
21,COc1cc(Cl)cc(-c2ccc3c(c2)[C@]2(C[C@@]4(CCCOC4)O3)N=C(N)N(C)C2=O)c1 [Compound 256],100 to 500 nM
22,CN1OC2(CC(C3CCOC(C)(C)C3)Oc3ccc(-c4cc(C#N)cc(C(F)(F)F)c4)cc32)N=C1N (stereo not shown) [Compound 257],100 to 500 nM
23,CN1O[C@]2(C[C@H](C3CCOC(C)(C)C3)Oc3ccc(-c4cccc(C#N)c4)cc32)N=C1N (stereo partly shown) [Compound 258],100 to 500 nM
24,CN1OC2(CC(C3CCOC(C)(C)C3)Oc3ccc(-c4cc(F)cc(C#N)c4)cc32)N=C1N (stereo not shown) [Compound 260],1000 to 5000 nM
25,CN1OC2(CC(C3CCOC(C)(C)C3)Oc3ccc(-c4cc(C#N)ccc4F)cc32)N=C1N (stereo not shown) [Compound 261],500 to 1000 nM
26,CN1C(=O)[C@@]2(C[C@]3(CCCOC3)Oc3ccc(-c4cccc(OC(F)(F)F)c4)cc32)N=C1N [Compound 262],100 to 500 nM
27,CN1C(=O)[C@@]2(C[C@@]3(CCCOC3)Oc3ccc(-c4cc(Cl)cc(C#N)c4)cc32)N=C1N [Compound 263],100 to 500 nM
